Tested on: MV-4-11 cells
Test: Gene expression microarray analysis (Affymetrix PrimeView) and GSEA
Assay type: cell-based, human
Set-up: RFU PODN (11730768_x_at) / Fold change /veh PODN (11730768_x_at) / RFU LINC00158 (11744669_a_at) / Fold change /veh LINC00158 (11744669_a_at) / RFU DUSP10 (11751237_a_at) / Fold change /veh DUSP10 (11751237_a_at) / RFU ID3 (11757404_x_at) / Fold change /veh ID3 (11757404_x_at) / RFU PLEKHG5 (11737974_s_at) / Fold change /veh PLEKHG5 (11737974_s_at) / RFU LRRC4B (11730491_at) / Fold change /veh LRRC4B (11730491_at) / RFU GIMAP4 (11747438_a_at) / Fold change /veh GIMAP4 (11747438_a_at) / RFU KRT8 (11758183_x_at) / Fold change /veh KRT8 (11758183_x_at) / RFU CNN1 (11734310_a_at) / Fold change /veh CNN1 (11734310_a_at) / RFU VPS37D (11726825_at) / Fold change /veh VPS37D (11726825_at) / RFU C10orf10 (11716522_x_at) / Fold change /veh C10orf10 (11716522_x_at) / RFU KIR2DL2 /// KIR2DL4 /// KIR2DL5A /// KIR2DL5B /// KIR2DS1 /// KIR2DS2 /// KIR2DS3 /// KIR2DS4 /// KIR3DL3 /// KIR3DL3 /// KIR3DS1 (11738374_at) / Fold change /veh KIR2DL2 /// KIR2DL4 /// KIR2DL5A /// KIR2DL5B /// KIR2DS1 /// KIR2DS2 /// KIR2DS3 /// KIR2DS4 /// KIR3DL3 /// KIR3DL3 /// KIR3DS1 (11738374_at) / RFU C1QL1 (11718748_at) / Fold change /veh C1QL1 (11718748_at) / RFU TMPRSS4 (11747572_a_at) / Fold change /veh TMPRSS4 (11747572_a_at) / RFU HAMP (11756126_x_at) / Fold change /veh HAMP (11756126_x_at) / RFU RNFT2 (11725882_a_at) / Fold change /veh RNFT2 (11725882_a_at) / RFU NR4A2 (11747474_a_at) / Fold change /veh NR4A2 (11747474_a_at) / RFU ABCC12 (11746883_a_at) / Fold change /veh ABCC12 (11746883_a_at) / RFU TMEM136 (11760407_x_at) / Fold change /veh TMEM136 (11760407_x_at) / RFU CLDN22 /// WWC2 (11732394_at) / Fold change /veh CLDN22 /// WWC2 (11732394_at) / RFU HLA-DPB1 (11760878_x_at) / Fold change /veh HLA-DPB1 (11760878_x_at) / RFU SPINT1 (11716480_a_at) / Fold change /veh SPINT1 (11716480_a_at) / RFU GAP43 (11754022_s_at) / Fold change /veh GAP43 (11754022_s_at) / RFU A4GNT (11735810_at) / Fold change /veh A4GNT (11735810_at) / RFU PRB3 (11715151_x_at) / Fold change /veh PRB3 (11715151_x_at) / RFU TUBB4B (11761932_at) / Fold change /veh TUBB4B (11761932_at) / RFU CAPN14 (11732068_a_at) / Fold change /veh CAPN14 (11732068_a_at) / RFU TMCC2 (11721928_a_at) / Fold change /veh TMCC2 (11721928_a_at) / RFU IRGQ (11745062_a_at) / Fold change /veh IRGQ (11745062_a_at) / RFU FAM174B (11720279_a_at) / Fold change /veh FAM174B (11720279_a_at) / RFU TMPRSS4 (11748680_a_at) / Fold change /veh TMPRSS4 (11748680_a_at) / RFU FAM212B (11763350_a_at) / Fold change /veh FAM212B (11763350_a_at) / RFU PLEKHG5 (11743358_a_at) / Fold change /veh PLEKHG5 (11743358_a_at) / RFU ZSCAN30 (11745921_a_at) / Fold change /veh ZSCAN30 (11745921_a_at) / RFU CMKLR1 (11741424_a_at) / Fold change /veh CMKLR1 (11741424_a_at) / RFU LOC101060620 /// MAPK8IP1 (11723275_at) / Fold change /veh LOC101060620 /// MAPK8IP1 (11723275_at) / RFU SPTSSB (11747773_x_at) / Fold change /veh SPTSSB (11747773_x_at) / RFU PRSS12 (11739890_at) / Fold change /veh PRSS12 (11739890_at) / RFU BIN1 (11741810_x_at) / Fold change /veh BIN1 (11741810_x_at) / RFU WNT11 (11732464_a_at) / Fold change /veh WNT11 (11732464_a_at) / RFU C10orf10 (11716521_a_at) / Fold change /veh C10orf10 (11716521_a_at) / RFU C5orf56 (11738089_at) / Fold change /veh C5orf56 (11738089_at) / RFU CYB561 (11721691_x_at) / Fold change /veh CYB561 (11721691_x_at) / RFU ANKRD19P (11752326_a_at) / Fold change /veh ANKRD19P (11752326_a_at) / RFU OR2T12 /// OR2T33 /// OR2T8 (11738714_s_at) / Fold change /veh OR2T12 /// OR2T33 /// OR2T8 (11738714_s_at) / RFU VCAN (11748164_a_at) / Fold change /veh VCAN (11748164_a_at) / RFU JSRP1 (11732532_at) / Fold change /veh JSRP1 (11732532_at) / RFU KRTAP10-11 (11738290_x_at) / Fold change /veh KRTAP10-11 (11738290_x_at) / RFU MYO3A (11730013_a_at) / Fold change /veh MYO3A (11730013_a_at) / RFU EBF3 (11725865_a_at) / Fold change /veh EBF3 (11725865_a_at) / RFU CAMK2N1 (11719241_x_at) / Fold change /veh CAMK2N1 (11719241_x_at) / RFU C5orf56 (11738088_a_at) / Fold change /veh C5orf56 (11738088_a_at) / RFU OLFML3 (11715873_a_at) / Fold change /veh OLFML3 (11715873_a_at) / RFU LOC100653217 /// NTM (11731650_a_at) / Fold change /veh LOC100653217 /// NTM (11731650_a_at) / RFU MAPK11 (11762145_a_at) / Fold change /veh MAPK11 (11762145_a_at) / RFU FIZ1 (11724087_x_at) / Fold change /veh FIZ1 (11724087_x_at) / RFU OASL (11726364_x_at) / Fold change /veh OASL (11726364_x_at) / RFU SOX15 (11748057_x_at) / Fold change /veh SOX15 (11748057_x_at) / RFU CD79A (11719716_a_at) / Fold change /veh CD79A (11719716_a_at) / RFU HIST1H1D (11736915_at) / Fold change /veh HIST1H1D (11736915_at) / RFU CASKIN2 (11723855_a_at) / Fold change /veh CASKIN2 (11723855_a_at) / RFU LOC730098 (11760151_x_at) / Fold change /veh LOC730098 (11760151_x_at) / RFU OR4N2 (11742367_at) / Fold change /veh OR4N2 (11742367_at) / RFU PRRT2 (11749266_a_at) / Fold change /veh PRRT2 (11749266_a_at) / RFU SNX32 (11753110_a_at) / Fold change /veh SNX32 (11753110_a_at) / RFU CDHR5 (11726645_a_at) / Fold change /veh CDHR5 (11726645_a_at) / RFU RCAN1 (11760418_a_at) / Fold change /veh RCAN1 (11760418_a_at) / RFU FAM167A (11723789_a_at) / Fold change /veh FAM167A (11723789_a_at) / RFU FAM26E (11764081_at) / Fold change /veh FAM26E (11764081_at) / RFU ISYNA1 (11749810_s_at) / Fold change /veh ISYNA1 (11749810_s_at) / RFU ACY1 (11761880_at) / Fold change /veh ACY1 (11761880_at) / RFU 11764098_at / Fold change /veh 11764098_at / RFU SAMD14 (11745864_x_at) / Fold change /veh SAMD14 (11745864_x_at) / RFU NPB (11741838_a_at) / Fold change /veh NPB (11741838_a_at) / RFU TMPRSS6 (11731388_a_at) / Fold change /veh TMPRSS6 (11731388_a_at) / RFU KRTAP10-2 (11738614_at) / Fold change /veh KRTAP10-2 (11738614_at) / RFU ARHGAP8 /// PRR5-ARHGAP8 (11727945_x_at) / Fold change /veh ARHGAP8 /// PRR5-ARHGAP8 (11727945_x_at) / RFU KRTAP5-7 /// NADSYN1 (11734609_at) / Fold change /veh KRTAP5-7 /// NADSYN1 (11734609_at) / RFU RASL12 (11751679_a_at) / Fold change /veh RASL12 (11751679_a_at) / RFU CDKN2B (11736163_a_at) / Fold change /veh CDKN2B (11736163_a_at) / RFU PRF1 (11729649_at) / Fold change /veh PRF1 (11729649_at) / RFU, ZNF638 /// ZNF638-IT1 / Fold change vs veh, ZNF638 /// ZNF638-IT1 / RFU, PANK3 / Fold change vs veh, PANK3 / RFU, SH3YL1 / Fold change vs veh, SH3YL1 / RFU, ZEB2 / Fold change vs veh, ZEB2 / RFU, NRIP1 / Fold change vs veh, NRIP1 / RFU, PTTG1IP / Fold change vs veh, PTTG1IP / RFU, CAPN2 / Fold change vs veh, CAPN2 / RFU, MED14 / Fold change vs veh, MED14 / RFU, SNORA58 / Fold change vs veh, SNORA58 / RFU, C1orf63 / Fold change vs veh, C1orf63 / RFU, LRRFIP1 / Fold change vs veh, LRRFIP1 / RFU, NDUFAF7 / Fold change vs veh, NDUFAF7 / RFU, SLC12A2 / Fold change vs veh, SLC12A2 / RFU, IBTK / Fold change vs veh, IBTK / RFU, ESF1 / Fold change vs veh, ESF1 / Fold change vs veh, TMEM50B / RFU, TAOK1 / Fold change vs veh, TAOK1 / RFU, ACBD3 / Fold change vs veh, ACBD3 / RFU, TMA16 / Fold change vs veh, TMA16 / RFU, RWDD3 / Fold change vs veh, RWDD3 / RFU, BCAT1 / Fold change vs veh, BCAT1 / RFU, EDEM3 / Fold change vs veh, EDEM3 / RFU, TMEM33 / Fold change vs veh, TMEM33 / RFU, WDR75 / Fold change vs veh, WDR75 / RFU, AHCTF1 / Fold change vs veh, AHCTF1 / RFU, TFRC / Fold change vs veh, TFRC / RFU, ZDHHC17 / Fold change vs veh, ZDHHC17 / RFU, NOM1 / Fold change vs veh, NOM1 / RFU, ARL8B / Fold change vs veh, ARL8B / RFU, ZBTB11 / Fold change vs veh, ZBTB11 / RFU, TAMM41 / Fold change vs veh, TAMM41 / RFU, KIAA1704 /// LOC100996395 / Fold change vs veh, KIAA1704 /// LOC100996395 / RFU, ING1 / Fold change vs veh, ING1 / RFU, TRMT61B / Fold change vs veh, TRMT61B / RFU, FUBP3 / Fold change vs veh, FUBP3 / RFU, TP53 / Fold change vs veh, TP53 / RFU, TNKS2 / Fold change vs veh, TNKS2 / RFU, ZFP14 / Fold change vs veh, ZFP14 / RFU, ACTR2 / Fold change vs veh, ACTR2 / RFU, PPP3R1 / Fold change vs veh, PPP3R1 / RFU, PIK3R1 / Fold change vs veh, PIK3R1 / RFU, HNRNPA1 / Fold change vs veh, HNRNPA1 / RFU, RNF170 / Fold change vs veh, RNF170 / RFU, ZNF28 / Fold change vs veh, ZNF28 / RFU, RNGTT / Fold change vs veh, RNGTT / RFU, OGT / Fold change vs veh, OGT / RFU, BRD1 / Fold change vs veh, BRD1 / RFU, MARS / Fold change vs veh, MARS / RFU, ZNF655 / Fold change vs veh, ZNF655 / RFU, FAHD1 / Fold change vs veh, FAHD1 / RFU, BDP1 / Fold change vs veh, BDP1 / RFU, LRRCC1 / Fold change vs veh, LRRCC1 / RFU, ARID1A / Fold change vs veh, ARID1A / RFU, ZNF146 / Fold change vs veh, ZNF146 / RFU, ZNF330 / Fold change vs veh, ZNF330 / RFU, GPN3 / Fold change vs veh, GPN3 / RFU, C9orf123 / Fold change vs veh, C9orf123 / RFU, N4BP2L2 / Fold change vs veh, N4BP2L2 / RFU, ARFIP1 / Fold change vs veh, ARFIP1 / RFU, FAM179B / Fold change vs veh, FAM179B / RFU, BCL10 / Fold change vs veh, BCL10 / RFU, UHRF1BP1L / Fold change vs veh, UHRF1BP1L / RFU, BET1 / Fold change vs veh, BET1 / RFU, CNOT2 / Fold change vs veh, CNOT2 / RFU, ZNF268 / Fold change vs veh, ZNF268 / Fold change vs veh, ZNF507 / RFU, DGCR2 / Fold change vs veh, DGCR2 / RFU, WDSUB1 / Fold change vs veh, WDSUB1 / Fold change vs veh, HSP90B1 /// MIR3652 / RFU, ADSS / Fold change vs veh, ADSS / RFU, GK / Fold change vs veh, GK / RFU, ZNF148 / Fold change vs veh, ZNF148 / RFU, TAF9 / Fold change vs veh, TAF9 / RFU, SLC1A5 / Fold change vs veh, SLC1A5 / RFU, SLMO2 / Fold change vs veh, SLMO2 / RFU, ABCC4 / Fold change vs veh, ABCC4 / RFU, LOC101060439 /// RAP1B / Fold change vs veh, LOC101060439 /// RAP1B / RFU, RFX7 / Fold change vs veh, RFX7 / RFU, GTPBP10 / Fold change vs veh, GTPBP10 / RFU, CNEP1R1 / Fold change vs veh, CNEP1R1 / RFU, BIVM-ERCC5 /// ERCC5 / Fold change vs veh, BIVM-ERCC5 /// ERCC5 / RFU, ILF3 / Fold change vs veh, ILF3 / RFU 11762660_at / Fold change /veh 11762660_at / RFU VCAN (11757783_s_at) / Fold change /veh VCAN (11757783_s_at) / RFU DDX43 (11728927_at) / Fold change /veh DDX43 (11728927_at) / RFU KRT8 (11758188_x_at) / Fold change /veh KRT8 (11758188_x_at) / RFU NKD1 (11759106_at) / Fold change /veh NKD1 (11759106_at) / RFU SRD5A1 (11742802_a_at) / Fold change /veh SRD5A1 (11742802_a_at) / RFU TPSAB1 /// TPSB2 (11721975_s_at) / Fold change /veh TPSAB1 /// TPSB2 (11721975_s_at) / RFU GSTM3 (11746129_a_at) / Fold change /veh GSTM3 (11746129_a_at) / RFU IL23R (11737362_x_at) / Fold change /veh IL23R (11737362_x_at) / RFU TMEM51 (11727254_a_at) / Fold change /veh TMEM51 (11727254_a_at) / RFU PIWIL2 (11732686_x_at) / Fold change /veh PIWIL2 (11732686_x_at) / RFU ORM1 (11744905_x_at) / Fold change /veh ORM1 (11744905_x_at) / RFU CCDC152 (11743942_at) / Fold change /veh CCDC152 (11743942_at) / RFU ECM1 (11717891_a_at) / Fold change /veh ECM1 (11717891_a_at) / RFU IL23R (11748794_a_at) / Fold change /veh IL23R (11748794_a_at) / RFU TNFAIP8L3 (11732012_x_at) / Fold change /veh TNFAIP8L3 (11732012_x_at) / RFU MBOAT4 (11741988_at) / Fold change /veh MBOAT4 (11741988_at) / RFU 11764193_at / Fold change /veh 11764193_at / RFU TMEM53 (11763286_at) / Fold change /veh TMEM53 (11763286_at) / RFU MAGEB2 (11727129_at) / Fold change /veh MAGEB2 (11727129_at) / RFU TMEM200A (11744735_a_at) / Fold change /veh TMEM200A (11744735_a_at) / RFU CCDC152 (11751479_a_at) / Fold change /veh CCDC152 (11751479_a_at) / RFU FAM211A (11726209_a_at) / Fold change /veh FAM211A (11726209_a_at) / RFU RGS16 (11746705_a_at) / Fold change /veh RGS16 (11746705_a_at) / RFU VCAN (11755009_s_at) / Fold change /veh VCAN (11755009_s_at) / RFU RHOB (11743442_s_at) / Fold change /veh RHOB (11743442_s_at) / RFU RGS16 (11720943_a_at) / Fold change /veh RGS16 (11720943_a_at) / RFU RGS16 (11720944_at) / Fold change /veh RGS16 (11720944_at) / RFU, VPS4B / Fold change vs veh, VPS4B / RFU, CREB1 / Fold change vs veh, CREB1 / RFU, DNAJC13 / Fold change vs veh, DNAJC13 / RFU, GNAQ / Fold change vs veh, GNAQ / RFU, CDK5R1 / Fold change vs veh, CDK5R1 / RFU, ZRANB3 / Fold change vs veh, ZRANB3 / RFU, CUL4A / Fold change vs veh, CUL4A / RFU, CCNY / Fold change vs veh, CCNY / RFU, UFL1 / Fold change vs veh, UFL1 / RFU, COG3 / Fold change vs veh, COG3 / RFU, DIAPH2 / Fold change vs veh, DIAPH2 / RFU, SKA2 / Fold change vs veh, SKA2 / RFU, AFF3 / Fold change vs veh, AFF3 / RFU, LMF1 / Fold change vs veh, LMF1 / RFU, IPO11 / Fold change vs veh, IPO11 / RFU, DFFB / Fold change vs veh, DFFB / RFU, FOXP1 / Fold change vs veh, FOXP1 / RFU, CARD8 / Fold change vs veh, CARD8 / RFU, STRN3 / Fold change vs veh, STRN3 / RFU, ADK / Fold change vs veh, ADK / RFU, RASSF2 / Fold change vs veh, RASSF2 / RFU, WIPF1 / Fold change vs veh, WIPF1 / RFU, LARP1B / Fold change vs veh, LARP1B / RFU, RASA1 / Fold change vs veh, RASA1 / RFU, RB1 / Fold change vs veh, RB1 / RFU, PPFIA1 / Fold change vs veh, PPFIA1 / RFU, MAT2A / Fold change vs veh, MAT2A / RFU, CCT5 / Fold change vs veh, CCT5 / RFU, WDR92 / Fold change vs veh, WDR92 / RFU, CUX1 / Fold change vs veh, CUX1 / RFU, TTC7A / Fold change vs veh, TTC7A / RFU, TMEM135 / Fold change vs veh, TMEM135 / RFU, DEPTOR / Fold change vs veh, DEPTOR / RFU, CPM / Fold change vs veh, CPM / RFU, DNAJB6 / Fold change vs veh, DNAJB6 / RFU, CACNA2D3 / Fold change vs veh, CACNA2D3 / RFU, DTX4 / Fold change vs veh, DTX4 / RFU, TFCP2 / Fold change vs veh, TFCP2 / RFU, GMCL1 /// GMCL1P1 / Fold change vs veh, GMCL1 /// GMCL1P1 / RFU, AEBP2 / Fold change vs veh, AEBP2 / RFU, SNHG1 /// SNORD22 /// SNORD25 /// SNORD26 /// SNORD27 /// SNORD28 /// SNORD29 /// SNORD31 / Fold change vs veh, SNHG1 /// SNORD22 /// SNORD25 /// SNORD26 /// SNORD27 /// SNORD28 /// SNORD29 /// SNORD31 / Fold change (Aza/veh), C12orf56 (ProbeSet 11735607_a_at) / Fold change (ACY-1035/veh), C12orf56 (ProbeSet 11735607_a_at) / Fold change (Aza/veh), FGFR1OP (ProbeSet 11751329_s_at) / Fold change (ACY-1035/veh), FGFR1OP (ProbeSet 11751329_s_at) / Fold change (Aza/veh), VPS36 (ProbeSet 11739960_a_at) / Fold change (ACY-1035/veh), VPS36 (ProbeSet 11739960_a_at) / RFU SYPL1 (11715823_x_at) / Fold change /veh SYPL1 (11715823_x_at) / RFU IGFBP7 (11715501_s_at) / Fold change /veh IGFBP7 (11715501_s_at) / RFU REEP3 (11722064_at) / Fold change /veh REEP3 (11722064_at) / RFU IGLL1 (11728026_x_at) / Fold change /veh IGLL1 (11728026_x_at): dose or concentration left out as unconfirmed
Conditions: MV-4-11 cells, 48 hours

## Nc1ncn([C@@H]2O[C@H](CO)[C@@H](O)[C@H]2O)c(=O)n1 [azacitidine]
  Fold change /veh 11764098_at: 1.18

— publication PMC5218480 (PLoS ONE, 2017)
